ChEMBL document CHEMBL5625219, “Design, synthesis fusidic acid derivatives alleviate acute lung injury via inhibiting MAPK/NF-κB/NLRP3 pathway” (Eur J Med Chem, 2023)
Activity calls are given as the source filed them. The calls are words filed in the database; no cut-off is given here.

Legend:
RAW264.7 = assay: Cytotoxicity against mouse RAW264.7 cells assessed as reduction in cell viability at 30 uM incubated for 24 hrs by MTT assay relative to control; format: toxicity, cell-based; conditions: raw264.7, 24 h
[1] = Cytotoxicity against mouse RAW264.7 cells assessed as inhibition of cell growth incubated for 24 hrs by MTT assay; format: toxicity, cell-based
Mus musculus [2] = assay: (§1) Anti-inflammatory activity in LPS-induced BALB/c mouse model of […] assessed as attenuation of inflammatory cell infiltration in lungs at 10 mg/kg, po preadministered with compound for 3 days followed by LPS stimulation for 6 hrs after 1 hrs compound administration on day 3 by H&E staining based analysis; format: functional, organism-based; conditions: time 3.0 day
Mus musculus [3] = assay: as §1, with “lung alveolar hemorrhage” for “inflammatory cell infiltration in lungs”; format: functional, organism-based; conditions: time 3.0 day
Mus musculus [4] = assay: (§2) Anti-inflammatory activity in LPS-induced BALB/c mouse model of […] assessed as inhibition of LPS-induced increase in lung W/D ratio at 10 mg/kg, po preadministered with compound for 3 days followed by LPS stimulation for 6 hrs after 1 hrs compound administration on day 3; format: functional, organism-based; conditions: time 3.0 day
Mus musculus [5] = assay: as §2, with “increase in NO production in BALF at 10” for “increase in lung W/D ratio at 10”, “day 3 by Griess reagent based method” for “day 3”; format: functional, organism-based; conditions: time 3.0 day
Mus musculus [6] = assay: as §2, with “increase in IL-6 expression in BALF at 10” for “increase in lung W/D ratio at 10”, “day 3 by ELISA” for “day 3”; format: functional, organism-based; conditions: time 3.0 day
Mus musculus [7] = assay: as §2, with “increase in TNF-alpha expression in BALF at 10” for “increase in lung W/D ratio at 10”, “day 3 by ELISA” for “day 3”; format: functional, organism-based; conditions: time 3.0 day
Mus musculus [8] = assay: as §2, with “increase in NO production in serum at 10” for “increase in lung W/D ratio at 10”, “day 3 by Griess reagent based method” for “day 3”; format: functional, organism-based; conditions: time 3.0 day
Mus musculus [9] = assay: as §2, with “increase in IL-6 expression in serum at 10” for “increase in lung W/D ratio at 10”, “day 3 by ELISA” for “day 3”; format: functional, organism-based; conditions: time 3.0 day
Mus musculus [10] = assay: as §2, with “increase in TNF-alpha expression in serum at 10” for “increase in lung W/D ratio at 10”, “day 3 by ELISA” for “day 3”; format: functional, organism-based; conditions: time 3.0 day
Mus musculus [11] = assay: (§3) In vivo inhibition of NFkappaB activation in LPS-induced BALB/c mouse model of […] assessed as inhibition of NFkappaB degradation at 10 mg/kg, po preadministered with compound for 3 days followed by LPS stimulation for 6 hrs after 1 hrs compound administration on day 3 by Western blot analysis; format: functional, organism-based; conditions: time 3.0 day
Mus musculus [12] = assay: as §3, with “inhibition of IkappaBalpha degradation at” for “inhibition of NFkappaB degradation at”; format: functional, organism-based; conditions: time 3.0 day

## CC(=O)O[C@H]1C[C@@]2(C)[C@@H](C[C@@H](O)[C@H]3[C@@]4(C)CC[C@@H](O)[C@@H](C)[C@@H]4CC[C@@]32C)/C1=C(\CCC=C(C)C)C(=O)O [FUSIDIC ACID]
RAW264.7
  Activity: 101.08%
[1]
  IC50 at 24 h: 61.3 µM
Mus musculus [2]
  Activity: Active
Mus musculus [3]
  Activity: Active
Mus musculus [4]
  Activity: Active
Mus musculus [5]
  Activity: Active
Mus musculus [6]
  Activity: Active
Mus musculus [7]
  Activity: Active
Mus musculus [8]
  Activity: Active
Mus musculus [9]
  Activity: Active
Mus musculus [10]
  Activity: Active
Mus musculus [11]
  inhibition: Active
Mus musculus [12]
  inhibition: Active
